Consider 19 compounds from patent US12629374B2, “Antimalarial agents” (Merck Sharp & Dohme LLC, priority 2020, dated 2026).

One assay concerns ring stage parasites. Briefly: Parasite growth potency assay, 72 hours, LDH readout. In kind it is cell-based. Conditions: 72 h, parasite growth measured by LDH assay after 72 hours at 37° C.; 0.7% rings, 2% haematocrit; read-out: EC50. Summed up:
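Parasite growth was quantified by LDH assay after a −80 °C freeze-thaw. Before that, compound was incubated for 72 h at 37 °C under humidified gas with ring-stage cultures adjusted to 0.7% parasitemia and 2% haematocrit in serum- and albumax-supplemented RPMI-Hepes.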
By EC50 is commonly meant the concentration needed to bring the measured effect to its halfway point. In the case of `CCC[C@H](c1cccc(C(=O)N[C@@H]2c3ccccc3OC(C)(C)[C@H]2O)c1)N1C(=N)NC(CC)(CC)CC1=O` [Example 119A, [4,4-diethyl-1-[(1R)-1-[3-[(3-hydroxy-2,2-dimethyl-chroman-4-yl)carbamoyl]phenyl]butyl]-6-oxo-hexahydropyrimidin-2-ylidene]ammonium; 2,2,2-trifluoroacetate], the EC50 is 0.5 nM.
The same measure, in the same setting: the result for `CCC1(CC)CC(=O)N([C@H](COCCOC)c2cccc(C(=O)NC3c4ccccc4CC3(C)O)c2)C(=N)N1` (stereo partly drawn) [Example 146A, 3-[(1S)-1-(4,4-diethyl-2-imino-6-oxo-hexahydropyrimidin-1-yl)-2-(2-methoxyethoxy)ethyl]-N-(2-hydroxy-2-methyl-indan-1-yl)benzamide] reads 5.3 nM.
Still for that read-out and setting: the result for `CCC1(CC)CC(=O)N([C@H](CCS(C)(=O)=O)c2cccc(C(=O)N[C@H]3CCOc4ccccc43)c2)C(=N)N1` [Example 161, [1-[1-[3-[[(4S)-chroman-4-yl]carbamoyl]phenyl]-3-methylsulfonyl-propyl]-4,4-diethyl-6-oxo-hexahydropyrimidin-2-ylidene]ammonium; 2,2,2-trifluoroacetate] reads 23 nM; that for `CCC1(CC)NC(=N)N([C@H](CCOC)c2cccc(C(=O)N[C@@H]3c4ccccc4C[C@H]3O)c2)C(=O)C1C` (stereo partly drawn) [Example 227A, 3-[(1R)-1-(4,4-diethyl-2-imino-5-methyl-6-oxo-hexahydropyrimidin-1-yl)-3-methoxy-propyl]-N-[(1R,2R)-2-hydroxyindan-1-yl]benzamide], 1.25 nM; that for `CCC1(CC)CC(=O)N([C@H](CCN2CCOCC2)c2cccc(C(=O)N[C@@H]3c4ccccc4C[C@H]3O)c2)C(=N)N1` [Example 55, [4,4-diethyl-1-[1-[3-[[(1R,2R)-2-hydroxyindan-1-yl]carbamoyl]phenyl]-3-morpholin-4-ium-4-yl-propyl]-6-oxo-hexahydropyrimidin-2-ylidene]ammonium; 2,2,2-trifluoroacetate], 9.8 nM.
Same read-out and setting: the result for `CCC1(CC)CC(=O)N(Cc2cncc(C(=O)N[C@@H]3c4ccccc4C[C@H]3O)c2)C(=N)N1` [Example 39, [4,4-diethyl-1-[[5-[[(1R,2R)-2-hydroxyindan-1-yl]carbamoyl]pyridin-1-ium-3-yl]methyl]-6-oxo-hexahydropyrimidin-2-ylidene]ammonium; 2,2,2-trifluoroacetate] reads 30.4 nM.
`CCC1(CC)CC(=O)N([C@H](CCOC)c2cncc(C(=O)N[C@@H]3c4ccccc4C[C@H]3O)c2)C(=N)N1` [Example 125, [4,4-diethyl-1-[1-[5-[[(1R,2R)-2-hydroxyindan-1-yl]carbamoyl]pyridin-1-ium-3-yl]-3-methoxy-propyl]-6-oxo-hexahydropyrimidin-2-ylidene]ammonium; 2,2,2-trifluoroacetate]: the EC50 amounted to 2.7 nM.
Regarding `CCC[C@H](c1cccc(C(=O)N[C@H]2CCOc3ccccc32)c1)N1C(=N)N[C@@](CC)(c2ccccc2)CC1=O` [Example 66, [(4R)-1-[(1R)-1-[3-[[(4S)-chroman-4-yl]carbamoyl]phenyl]butyl]-4-ethyl-6-oxo-4-phenyl-hexahydropyrimidin-2-ylidene]ammonium; 2,2,2-trifluoroacetate], the EC50 is 7.5 nM.
As to `COCC[C@H](c1cccc(C(=O)N[C@@H]2c3ccccc3OC(C)(C)[C@H]2O)c1)N1C(=N)NC(C)(C)CC1=O` [Example 178, [1-[(1R)-1-[3-[[(3S,4R)-3-hydroxy-2,2-dimethyl-chroman-4-yl]carbamoyl]phenyl]-3-methoxy-propyl]-4,4-dimethyl-6-oxo-hexahydropyrimidin-2-ylidene]ammonium; 2,2,2-trifluoroacetate], the EC50 amounted to 2.4 nM.
On the same count and under the same terms, the result for `CCC[C@H](c1cc(C(=O)N[C@H]2CCOc3ccccc32)ccn1)N1C(=N)NC(CC)(CC)CC1=O` [Example 49A, [1-[1-[4-[[(4S)-chroman-4-yl]carbamoyl]pyridin-1-ium-2-yl]butyl]-4,4-diethyl-6-oxo-hexahydropyrimidin-2-ylidene]ammonium; 2,2,2-trifluoroacetate] reads 0.7 nM.
Still for that read-out and setting: the result for `CCC[C@H](c1cccc(C(=O)N[C@@H]2c3ccccc3C[C@H]2O)c1)N1C(=N)NC(CC)(CC)CC1=O` [Example 102, [4,4-diethyl-1-[(1R)-1-[3-[[(1R,2R)-2-hydroxyindan-1-yl]carbamoyl]phenyl]butyl]-6-oxo-hexahydropyrimidin-2-ylidene]ammonium; 2,2,2-trifluoroacetate] reads 0.5 nM.
Still for that read-out and setting: the result for `CC(C)[C@]1(C)CC(=O)N([C@H](C)c2cccc(C(=O)N[C@@H]3c4ccccc4C[C@H]3O)c2)C(=N)N1` [Example 27, [(4S)-1-[1-[3-[[(1R,2R)-2-hydroxyindan-1-yl]carbamoyl]phenyl]ethyl]-4-isopropyl-4-methyl-6-oxo-hexahydropyrimidin-2-ylidene]ammonium; 2,2,2-trifluoroacetate] reads 3.2 nM.
Regarding `CCC[C@H](c1cccc(C(=O)N[C@@H]2c3ccccc3CC2(C)O)c1)N1C(=N)NC(CC)(CC)CC1=O` (stereo partly drawn) [Example 122A, 3-[(1R)-1-(4,4-diethyl-2-imino-6-oxo-hexahydropyrimidin-1-yl)butyl]-N-(2-hydroxy-2-methyl-indan-1-yl)benzamide], the EC50 amounted to 1.2 nM.
Same read-out and setting: the result for `CCC1(CC)CC(=O)N([C@H](CCOC)c2cccc(C(=O)NC3c4ccccc4CC3(C)O)c2)C(=N)N1` (single isomer, unassigned) [Example 142B, 3-[1-(4,4-diethyl-2-imino-6-oxo-hexahydropyrimidin-1-yl)-3-methoxy-propyl]-N-(2-hydroxy-2-methyl-indan-1-yl)benzamide] reads 1.4 nM; that for `CCC1(CC)CC(=O)N([C@H](CCOC)c2cc(F)cc(C(=O)N[C@@H]3c4ccccc4OC3(C)COC)c2)C(=N)N1` (stereo partly drawn) [Example 176B, [4,4-diethyl-1-[(1R)-1-[3-fluoro-5-[[2-(methoxymethyl)-2-methyl-3H-benzofuran-3-yl]carbamoyl]phenyl]-3-methoxy-propyl]-6-oxo-hexahydropyrimidin-2-ylidene]ammonium; 2,2,2-trifluoroacetate], 0.9 nM.
On the same count and under the same terms, the result for `N=C1N[C@@](CC2CC2)(c2ccccc2)CC(=O)N1Cc1cccc(C(=O)N[C@H]2CCOc3ccccc32)c1` [Example 6A, [(4R)-1-[[3-[[(4S)-chroman-4-yl]carbamoyl]phenyl]methyl]-4-(cyclopropylmethyl)-6-oxo-4-phenyl-hexahydropyrimidin-2-ylidene]ammonium; 2,2,2-trifluoroacetate] reads 58.8 nM.

Staying with this assay, now noted: parasite growth measured by LDH assay after 72 hours at 37° C.; 0.7% rings, 2% haematocrit; read-out: EC50.
For the compound `CC[C@]1(C)CC(=O)N([C@H](CCOC)c2cccc(C(=O)NC3c4ccccc4OC(C)(C)C3(C)O)c2)C(=N)N1` (single isomer, unassigned) [Example 234A], the EC50 was 0.43 nM.
Same read-out and setting: the result for `C#CCCC(c1cccc(C(=O)NC2CC(C)(C)Oc3ccccc32)c1)N1C(=N)NC(CC)(CC)CC1=O` [Example 214B, 3-[(1R)-1-(4,4-diethyl-2-imino-6-oxo-hexahydropyrimidin-1-yl)pent-4-ynyl]-N-(2,2-dimethylchroman-4-yl)benzamide] reads 31.2 nM; that for `CCC[C@H](c1cccc(C(=O)N[C@H]2c3ccccc3CC2(C)O)c1)N1C(=N)NC(CC)(CC)CC1=O` (single isomer, unassigned) [Example 122C], 57.3 nM.
